Patent US12692262B2, “Substituted ureas as orexin receptor agonists” (Merck Sharp & Dohme LLC, priority 2020, dated 2026)

Biological target: T1, human OX2R (Homo sapiens, UniProt O43614)
T1 construct: expressed in transfected cells; host or cells: CHO (Chinese hamster ovary) cells grown under G418 selection
T1 sequence (O43614 1-444): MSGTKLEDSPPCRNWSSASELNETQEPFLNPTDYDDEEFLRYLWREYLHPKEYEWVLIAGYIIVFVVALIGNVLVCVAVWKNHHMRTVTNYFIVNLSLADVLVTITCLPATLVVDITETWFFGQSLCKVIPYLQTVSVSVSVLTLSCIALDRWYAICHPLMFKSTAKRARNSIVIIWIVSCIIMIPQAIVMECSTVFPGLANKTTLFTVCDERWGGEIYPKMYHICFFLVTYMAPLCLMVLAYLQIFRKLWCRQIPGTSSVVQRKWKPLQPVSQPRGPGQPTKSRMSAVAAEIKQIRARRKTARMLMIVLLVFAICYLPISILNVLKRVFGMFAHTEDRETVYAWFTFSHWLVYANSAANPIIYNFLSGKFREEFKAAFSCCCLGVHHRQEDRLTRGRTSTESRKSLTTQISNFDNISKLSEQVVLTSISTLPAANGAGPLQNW
Test: IPOne (IP-1 accumulation) assay in CHO cells expressing human OX2R
Format: cell-based
Details: for EC50: CHO cells expressing human OX2R, IP-One assay, 2 h incubation, four parameter logistic fit, read-out: OX2R Potency, EC50; for % of maximum agonist effect (relative to Orexin A): percent effect vs mean max effect of a reference compound at 1 uM (100% activity vs Orexin A), human OX2R
Method in brief: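 CHO cells stably expressing human OX2R, grown in Iscove's modified DMEM with 10% FBS; agonist-driven IP-1 accumulation via the Gαq pathway measured by HTRF (D2/AB-cryptate detection after lysis). EC50 taken as the inflection point of a four-parameter logistic fit.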

EC50 [µM]	% of maximum agonist effect (relative to Orexin A) [%]	% of maximum agonist effect (relative to Orexin A) (1 µM) [%]	SMILES
0.001	99.1		CCN(C(=O)N[C@@H](CCC(F)(F)F)C(F)(F)F)C(C)c1cc(-c2cc(F)c3nccn3c2)c(OC)cn1 (stereo partly drawn) [Example 15-2, 1-ethyl-1-(1-(4-(8-fluoroimidazo[1,2-a]pyridin-6-yl)-5-methoxypyridin-2-yl)ethyl)-3-((S)-1,1,1,5,5,5-hexafluoropentan-2-yl)urea]
0.0007	101.8		CCN(C(=O)NC(CNS(=O)(=O)N(C)C)C(F)(F)F)[C@H](C)c1cccc(-c2cn3ccnc3c(OC)n2)c1 (stereo partly drawn) [Example 17, N-{3-[(dimethylsulfamoyl)amino]-1,1,1-trifluoropropan-2-yl}-N-ethyl-N-{(1R)-1-[3-(8-methoxyimidazo[1,2-a]pyrazin-6-yl)phenyl]ethyl}urea]
0.126	99.6		CC[C@H](CCC(F)(F)F)NC(=O)N(CC)C(C)(C)c1cccc(-c2ccc3nccn3c2)c1 [Example 18, (R)-1-ethyl-1-(2-(3-(imidazo[1,2-a]pyridin-6-yl)phenyl)propan-2-yl)-3-(6,6,6-trifluorohexan-3-yl)urea]
0.0232	94.9		C=Cc1ccc([C@@H](C)N(CC)C(=O)N[C@H](CC)CCC(F)(F)F)cc1-c1ccc2nccn2c1 [Example 19, 1-ethyl-1-((R)-1-(3-(imidazo[1,2-a]pyridin-6-yl)-4-vinylphenyl)ethyl)-3-((R)-6,6,6-trifluorohexan-3-yl)urea]
		100.1	CCN(C(=O)N[C@@H](C=C(C)C)C(F)(F)F)[C@H](C)c1cccc(-c2cn3ccnc3c(OC)n2)c1 [Example 20, 1-ethyl-1-((R)-1-(3-(8-methoxyimidazo[1,2-a]pyrazin-6-yl)phenyl)ethyl)-3-((S)-1,1,1-trifluoro-4-methylpent-3-en-2-yl)urea]
0.0253	97.0		CCN(C(=O)NC(COC(C)=O)C(F)(F)F)[C@H](C)c1cccc(-c2cn3ccnc3c(OC)n2)c1 (stereo partly drawn) [Example 22, 2-(3-ethyl-3-((R)-1-(3-(8-methoxyimidazo[1,2-a]pyrazin-6-yl)phenylethyl)ureido)-3,3,3-trifluoropropyl acetate]
0.619	98.5		CC[C@H](CCC(F)(F)F)NC(=O)N(CC)[C@H](C)c1cccc(-c2cc3c(c(OC)c2)NCC3)c1 [Example 25, 1-ethyl-1-((R)-1-(3-(7-methoxyindolin-5-yl)phenyl)ethyl)-3-((R)-6,6,6-trifluorohexan-3-yl)urea]
0.144	89.1		CCN(C(=O)N[C@@H](CCC(F)(F)F)C(F)(F)F)[C@H](C)c1cccc(-c2cc(OC)c3nc(O)cn3c2)c1 [Example 26, 1-ethyl-3-((S)-1,1,1,5,5,5-hexafluoropentan-2-yl)-1-((R)-1-(3-(2-hydroxy-8-methoxyimidazo[1,2-a]pyridin-6-yl)phenyl)ethyl)urea]
0.619	98.5		CCN(C(=O)N[C@@H](CCC(F)(F)F)C(F)(F)F)[C@H](C)c1cccc(-c2cc(OC)c3nc(C(F)(F)F)cn3c2)c1 [Example 27, 1-ethyl-3-((S)-1,1,1,5,5,5-hexafluoropentan-2-yl)-1-((R)-1-(3-(8-methoxy-2-(trifluoromethyl)imidazo[1,2-a]pyridin-6-yl)phenyl)ethyl)urea]
2.13	97.2		CCN(C(=O)N[C@@H](CCC(F)(F)F)C(F)(F)F)C(=C(F)F)c1cc(-c2cn3ccnc3c(OC)n2)c(OC)cn1 [Example 28, (S)-1-(2,2-difluoro-1-(5-methoxy-4-(8-methoxyimidazo[1,2-a]pyrazin-6-yl)pyridin-2-yl)vinyl)-1-ethyl-3-(1,1,1,5,5,5-hexafluoropentan-2-yl)urea]
4.73	97.0		CCN(C(=O)N[C@@H](CCC(F)(F)F)C(F)(F)F)[C@H](C)c1cnc(O)c(-c2cc(OC)n3nccc3c2)c1 [Example 30, 1-ethyl-3-((S)-1,1,1,5,5,5-hexafluoropentan-2-yl)-1-((R)-1-(6-hydroxy-5-(7-methoxypyrazolo[1,5-a]pyridin-5-yl)pyridin-3-yl)ethyl)urea]
